Earlier results on eight compounds are cited in patent US20240108043A1, “NONNUTRITIVE SWEETENER COMPOSITIONS, METHODS OF MANUFACTURE AND USES THEREOF” (priority 2022, published 2024).

The test system of data set [1] is TNF-Alpha and Interleukin 1-Beta. The note with it: concentration of 1 mM.
For data set [2] the following is noted: 500 mg, two years, mild hypertension patients.
The conditions of data set [3]: for Sweetness intensity relative to sucrose: times the sweetness intensity of sucrose.
For data set [4] the following is noted: diabetic human subjects, daily 20 g for 14 days.
The conditions of data set [5]: in vivo.
Assay in data set [6]: not given
The source holds these as a separate data set.

Read-outs that look alike come from different tables or passages of the source.

For the compound `C=C1C[C@@]23CC[C@H]4[C@@](C)(CCC[C@@]4(C)C(=O)O[C@@H]4O[C@H](CO)[C@@H](O)[C@H](O)[C@H]4O)[C@@H]2CC[C@]1(O[C@@H]1O[C@H](CO)[C@@H](O)[C@H](O)[C@H]1O[C@@H]1O[C@H](CO)[C@@H](O)[C@H](O)[C@H]1O)C3` [stevioside], in data set [1], the “Endotoxin release of TNF-Alpha and Interleukin 1-Beta” value is recorded as “significantly suppressed”. The “Diastolic and systolic blood pressure” value in data set [2] was “significantly reduced”. Also, the Blood glucose entry (200 mg, sixty healthy volunteers) is “effectively reduce blood glucose”. The “Postprandial blood glucose levels” value (1 gram vs 1 gram maize starch, type-2 diabetes patients, 30 and 240 minutes after a meal) was “reduced postprandial blood glucose levels”.

For `O=C(CO)[C@H](O)[C@H](O)[C@H](O)CO` [allulose, D-ribo-2-hexulose], the “Sweetness intensity relative to sucrose” value in data set [3] is “approximately 0.7 times”.

Take `OC[C@@H](O)[C@@H](O)CO` [erythritol, (2R,3S)-Butan-1,2,3,4-tetrol]: the “Effect on blood glucose insulin” value in data set [4] is on record as “no effect”. Besides, the “Sweetness, as sweet as sucrose” value in data set [3] (percent of sucrose sweetness) is 60-70%. In data set [3], the “Sweetness intensity relative to sucrose” value is reported as 0.6-0.7 times. Moreover, the “Excreted through urine with molecular structure unchanged” value in data set [5] is given as “Approximately 90%”.

For the compound `OC[C@@H](O)[C@@H](O[C@@H]1O[C@H](CO)[C@H](O)[C@H](O)[C@H]1O)[C@H](O)[C@@H](O)CO` [lactitol], in data set [6] (doses of 30-40 grams), the “Incidence of gastrointestinal distress compared to equal doses of sucrose” value was “significantly (p<0.01) increased”.

Consider `O=C(CO)[C@@H](O)[C@H](O)[C@H](O)CO` [fructose, D-Fructose], for which the “Sweetness intensity relative to sucrose” value in data set [3] is “approximately 1.7 times”.

With `OC[C@@H](O)[C@@H](O)[C@H](O)[C@H](O)CO` [mannitol], the “Dose causing laxative affects” value in data set [6] (single bolus) was “greater than 20 grams”.

Turning to `C=C1C[C@@]23CC[C@H]4[C@@](C)(CCC[C@@]4(C)C(=O)O)[C@@H]2CC[C@]1(O)C3` [steviol], the “Endotoxin release of TNF-Alpha and Interleukin 1-Beta” value in data set [1] is recorded as “significantly suppressed”.

For `OC[C@@H](O)[C@@H](O)[C@H](O)[C@@H](O)CO` [sorbitol], the “Dose at which laxative affect is seen” value in data set [6] (men) is 170 mg/kg; in data set [6] (women) it was 240 mg/kg.
